We go through 15 compounds from paper PMC8881063 (Journal of Enzyme Inhibition and Medicinal Chemistry, 2022).

Test [1] concerns the target T1, recombinant human MAO-A (Homo sapiens, UniProt P21397).
T1 sequence (P21397 1-527): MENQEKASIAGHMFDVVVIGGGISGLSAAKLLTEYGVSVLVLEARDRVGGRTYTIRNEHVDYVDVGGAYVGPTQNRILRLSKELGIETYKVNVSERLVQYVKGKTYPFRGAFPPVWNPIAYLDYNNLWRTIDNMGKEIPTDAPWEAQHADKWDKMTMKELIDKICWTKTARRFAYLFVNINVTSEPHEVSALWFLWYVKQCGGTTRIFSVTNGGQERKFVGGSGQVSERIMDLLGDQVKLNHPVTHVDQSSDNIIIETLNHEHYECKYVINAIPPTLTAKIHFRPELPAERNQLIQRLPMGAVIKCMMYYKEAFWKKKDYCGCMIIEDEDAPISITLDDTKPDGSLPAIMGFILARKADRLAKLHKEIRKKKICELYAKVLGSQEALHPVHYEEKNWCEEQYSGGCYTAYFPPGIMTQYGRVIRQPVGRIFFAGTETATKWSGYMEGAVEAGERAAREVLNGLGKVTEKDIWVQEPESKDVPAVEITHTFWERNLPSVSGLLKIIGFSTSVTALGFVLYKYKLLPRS
Briefly: hMAO-A inhibition, spectrophotometric assay. Type of test: biochemical. Conditions: for inhibition at 10 µM: single dose concentration of 10 µM. The text has this:
Two different MAO isoforms are known.

Test [2] addresses T2, MAO-B (Homo sapiens, UniProt P27338).
T2 sequence (P27338 1-520): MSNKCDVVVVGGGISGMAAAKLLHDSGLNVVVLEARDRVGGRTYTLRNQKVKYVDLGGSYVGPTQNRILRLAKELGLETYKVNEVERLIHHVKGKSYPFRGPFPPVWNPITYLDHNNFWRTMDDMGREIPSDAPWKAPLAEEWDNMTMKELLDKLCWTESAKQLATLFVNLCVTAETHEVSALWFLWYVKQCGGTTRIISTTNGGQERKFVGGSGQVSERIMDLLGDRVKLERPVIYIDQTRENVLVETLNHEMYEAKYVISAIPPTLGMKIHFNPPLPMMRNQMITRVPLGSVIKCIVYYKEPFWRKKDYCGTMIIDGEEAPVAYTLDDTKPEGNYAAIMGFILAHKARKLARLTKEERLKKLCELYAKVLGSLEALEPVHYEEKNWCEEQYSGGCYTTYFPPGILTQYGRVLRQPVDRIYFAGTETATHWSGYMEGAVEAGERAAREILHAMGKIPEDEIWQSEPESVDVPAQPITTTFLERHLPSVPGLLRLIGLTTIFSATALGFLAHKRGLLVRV
Briefly: hMAO-B inhibition, spectrophotometric assay. Conditions: for Selectivity index for inhibition of MAO-B: IC50 MAO-A divided by IC50 MAO-B; for inhibition at 10 µM: read-out: MAO-B % Inhibition, single dose concentration of 10 µM.
Protocol: The inhibitory activities of the compounds against hMAO-A and hMAO-B enzymes were evaluated referring to a previously described method (Supporting information)[49].

Turning to `O=C1/C(=C/c2cccc(O)c2O)Oc2cc(O)ccc21` [Compound 1c, (Z)-2–(2,3-Dihydroxybenzylidene)-6-hydroxybenzofuran-3(2H)-one], in test [1], the IC50 is greater than 10 µM and the inhibition at 10 µM is 46.2%. Moreover, in test [2], the half-inhibitory concentration (IC50) amounted to 3 µM, the “Selectivity index for inhibition of MAO-B” value is recorded as greater than 3.34 and the inhibition at 10 µM amounted to 58.9%.

Regarding `O=C1/C(=C/c2ccc(O)cc2O)Oc2cc(O)ccc21` [Compound 1d], in test [1], the IC50 is greater than 10 µM and the inhibition at 10 µM came out at 44.1%. In addition, in test [2], the IC50 is greater than 10 µM and the inhibition at 10 µM was determined as 48.3%.

Turning to `O=C1/C(=C/c2ccc(O)c(O)c2)Oc2cc(O)ccc21` [Compound 1e], in test [1], the IC50 is 4.66 µM and the inhibition at 10 µM came to 64.9%. In addition, in test [2], the IC50 turned out to be 2.41 µM, the “Selectivity index for inhibition of MAO-B” value was 1.93 and the inhibition at 10 µM stood at 61.8%.

Take `COc1ccccc1/C=C1\Oc2cc(O)ccc2C1=O` [Compound 1i]: in test [1], the half-maximal inhibitory concentration (IC50) is greater than 100 µM and the inhibition at 10 µM came to 5.49%. For the same compound, in test [2], the IC50 turned out to be 1.84 µM, the “Selectivity index for inhibition of MAO-B” value is given as greater than 54 and the inhibition at 10 µM came to 75.5%.

As for `COc1ccc2c(c1)O/C(=C\c1ccc(O)c(O)c1)C2=O` [Compound 1w], the figures for the 50% inhibitory concentration (IC50) in test [1] and in test [2] were 5.62 µM and 2.41 µM, respectively. For the same compound, the inhibition at 10 µM in test [1] was 60.8%; in test [2], 70.5%.

On to `COc1cccc(/C=C2\Oc3cc(O)ccc3C2=O)c1OC` [Compound 1l], for which, in test [1], the IC50 is greater than 100 µM and the inhibition at 10 µM was -2.21%. Moreover, in test [2], the midpoint of inhibition, the IC50, lay at 3.52 µM; the “Selectivity index for inhibition of MAO-B” value is reported as greater than 28; the inhibition at 10 µM stood at 70.8%.

Consider `O=C1/C(=C/c2cc(O)c(O)c(O)c2)Oc2cc(O)ccc21` [Compound 1h], for which, in test [1], the IC50 was greater than 10 µM and the inhibition at 10 µM was determined as 49.5%. Also, in test [2], the half-inhibitory concentration (IC50) was greater than 10 µM and the inhibition at 10 µM amounted to 47.5%.

On to `COc1ccc2c(c1)O/C(=C\c1ccc(O)cc1O)C2=O` [Compound 1v], for which, in test [1], the IC50 stood at 8.2 µM and the inhibition at 10 µM was 55.7%. In test [2], the midpoint of inhibition, the IC50, lay at 6.04 µM and the inhibition at 10 µM is 66.7%.

For the compound `COc1ccc(/C=C2\Oc3cc(O)ccc3C2=O)cc1OC` [Compound 1n], in test [1], the half-maximal inhibitory concentration (IC50) was greater than 10 µM and the inhibition at 10 µM worked out at 4.52%. In test [2], the IC50 was greater than 10 µM and the inhibition at 10 µM was determined as 42.6%.

On to `O=C1/C(=C/c2cccc(O)c2)Oc2cc(O)ccc21` [Compound 1b], for which, in test [1], the IC50 was greater than 10 µM and the inhibition at 10 µM came to 16.6%. Further, in test [2], the IC50 is greater than 10 µM and the inhibition at 10 µM was found to be 13.6%.

Take `COc1cccc(/C=C2\Oc3cc(O)ccc3C2=O)c1` [Compound 1j]: in test [1], the IC50 is greater than 100 µM and the inhibition at 10 µM amounted to 7.43%. For the same compound, in test [2], it took 2.41 µM to reach half-maximal inhibition (IC50), the “Selectivity index for inhibition of MAO-B” value is recorded as greater than 41 and the inhibition at 10 µM came out at 73.2%.

Turning to `O=C1/C(=C/c2ccccc2O)Oc2cc(O)ccc21` [Compound 1a], in test [1], the IC50 is greater than 10 µM and the inhibition at 10 µM came to 9.02%. Moreover, in test [2], the IC50 is greater than 10 µM and the inhibition at 10 µM is less than 50%.

For `COc1ccc(/C=C2\Oc3cc(O)ccc3C2=O)cc1` [Compound 1k], the IC50 in test [1] is 6.98 µM; in test [2], 0.365 µM. Also, the inhibition at 10 µM in test [1] is 53%; in test [2], 94.6%.

`COc1ccc(OC)c(/C=C2\Oc3cc(O)ccc3C2=O)c1` [Compound 1m]: the IC50 in test [1] and in test [2] was greater than 10 µM each time. Also, the inhibition at 10 µM in test [1] was -0.29%; in test [2] it was 46.3%.

Take `COc1ccc2c(c1)O/C(=C\c1cccc(O)c1O)C2=O` [Compound 1u, (Z)-2–(2,3-Dihydroxybenzylidene)-6-methoxybenzofuran-3(2H)-one]: in test [1], the IC50 was determined as 7.04 µM and the inhibition at 10 µM came to 52.8%. Moreover, in test [2], half-maximal inhibition (IC50) was put at 2.41 µM and the inhibition at 10 µM amounted to 65%.

In general, IC50 refers to the concentration at which inhibition is half-maximal.
